# Patent US20130184270A1, “SUBSTITUTED 2,3-DIHYDROIMIDAZO[1,2-C]QUINAZOLINE-CONTAINING COMBINATIONS” (priority 2010, published 2013)
# Where two headings read alike, the source gives them in different places.
# Assays:
# [1] = test system: Lu7343 primary human tumor (NSCLC); experiment: patient-derived NSCLC xenograft model, cA plus paclitaxel (text: Lu7187; FIG. 5: Lu7343); type: in vivo, nude mice
# Experimental: (§1) The in vivo combination effects were evaluated in tumor xenograft models in nude mice with either established human tumor cell lines or patient-derived primary tumor models at the MTD and sub-MTD dosages.
# The synergistic combination of cA* and palitaxel was also confirmed in a patient-derived NSCLC xenograft model—Lu7187.
# FIG. 5: Dose-dependent tumor growth inhibition in Lu7343 primary human xenograft NSCLC model. Lu7343 primary human tumor was derived from a patient with NSCLC and was xenografted in nude mice. The tumor was propagated in vivo and tumor tissue from one in vivo passage was used for s.c. implantation in the inguinal region of male nude mice. Treatment was started when the tumors were approximately 0.1 cm^3 in size. Treatment was continued until progression of the tumors. Tumor diameters and body weight were monitored t weekly. cA* was dosed at 10 mg/kg, BIDx1 weekly on day 15, 22, and 29. paclitaxel was dosed at either 15 mg/kg, or 25 mg/kg, once a week on day 14, 21 and day 28.
# [2] = test system: Lu7187 primary human tumor (NSCLC); conditions: for sensitivity of the model / T/C / animals with disease progression: Lu7187; for animals with disease progression: respective monotherapy groups
# Experimental: as §1
# Lu7187 primary human tumor was derived from a patient with NSCLC and was xenografted in nude mice. The tumor was propagated in vivo and tumor tissue from one in vivo passage was used for s.c. implantation in the inguinal region of male nude mice. Treatment was started when the tumors were approximately 0.1 cm^3 in size. Treatment was continued until progression of the tumors. Tumor diameters and body weight were monitored t weekly. cA* was dosed at 14 mg/kg, Q2D×10 from day 7 to day 25 (group C, H and I), or 10 mg/kg, BID×1 weekly on day 7, 14, 21 and 28. cB was dosed at either 12.5 mg/kg (group D, F and H), QD, or 25 mg/kg (group E, G and I), QD from day 7 to day 35.
# [3] = test system: NCI-H1975, NCI-H1650, HCT116, Colo205, MDA-MB-468 cell lines; experiment: caspase 3/7 activation assay, example (cell line not named); type: cell-based
# Experimental: The effects of combinations of the present invention were evaluated using combination index isobologram analysis for in vitro assessment. The efficacy parameters were the effects in a 72-hour cell proliferation assay or in a 48-hour caspase 3/7 activation assay. Briefly, cells were plated in 384-well plate with 25 μL medium. […] Experiments were conducted in triplicates. The mapping EC50/IC50 and EC90/IC90 values were calculated using Analyze5 computer program. The corresponding component concentrations of cA and BB (either cB, or Lapatinib, or paclitaxel (as component B)) at the […] were calculated and used for plotting isobolograms. […] The dose-response curve of either cA* or cB alone, or cA* (as component A) plus cB (as component B) with the ratio indicated in the figure, where the top relative concentrations are defined as 1.
# [4] = test system: Co5841 primary human tumor (CRC); experiment: Co5841 primary human xenograft CRC model; type: in vivo, nude mice
# Experimental: as §1
# FIG. 3: Dose-dependent tumor growth inhibition in Co5841 primary human xenograft CRC model. Co5841 primary human tumor was derived from a patient with CRC and was xenografted in nude mice. The tumor was propagated in vivo and tumor tissue from one in vivo passage was used for s.c. implantation in the inguinal region of male nude mice. Treatment was started when the tumors were approximately 0.1 cm^3 in size. Treatment was continued until progression of the tumors. Tumor diameters and body weight were monitored weekly. cA* was dosed at 14 mg/kg, Q2D×7 from day 6 to day 22 (group C, H and I), or 10 mg/kg, BID×1 weekly on day 6, 13, and 20. cB was dosed at either 12.5 mg/kg (group D, F and H), QD, […]
# [5] = test system: CRC SW620 Tumor Cell Line; experiment: 72-hour cell proliferation assay (Cell Titer Glo), combination index; type: cell-based; conditions: Homo sapiens, SW-620; SW620, single agent, 90% inhibition not reached
# Experimental: The effects of combinations of the present invention were evaluated using combination index isobologram analysis for in vitro assessment. The efficacy parameters were the effects in a 72-hour cell proliferation assay or in a 48-hour caspase 3/7 activation assay. Briefly, cells were plated in 384-well plate with 25 μL medium. […] Experiments were conducted in triplicates. The mapping EC50/IC50 and EC90/IC90 values were calculated using Analyze5 computer program. The corresponding component concentrations of cA and BB (either cB, or Lapatinib, or paclitaxel (as component B)) at the […] were calculated and used for plotting isobolograms. […] IC50 and IC90 refers to the IC50 and IC90 obtained from the dose-response curve of either cA* or cB alone, or cA* plus cB with the ratio indicated in the table, where the top relative concentration is defined as 1.
structure (smiles),measurement,setting,value
CC(=O)O[C@H]1C(=O)[C@@]2(C)[C@H]([C@H](OC(=O)c3ccccc3)[C@]3(O)C[C@H](OC(=O)[C@H](O)[C@@H](NC(=O)c4ccccc4)c4ccccc4)C(C)=C1C3(C)C)[C@]1(OC(C)=O)CO[C@@H]1C[C@@H]2O [Paclitaxel],single agent efficacy,[1]; paclitaxel 25 mg/kg (MTD),very efficacious
same,mice with disease progression after stopping the treatment,[1]; paclitaxel 25 mg/kg single agent,60%
same,sensitivity of the model,[2],resistant
"COc1c(OCCCN2CCOCC2)ccc2c1N=C(NC(=O)c1cnc(N)nc1)N1CCN=C21 [cA, 2-amino-N-[7-methoxy-8-(3-morpholin-4-ylpropoxy)-2,3-dihydroimidazo[1,2-c]quinazolin-5-yl]pyrimidine-5-carboxamide]","induction of apoptosis (caspase 3/7), single agent",[3]; 5 μM,Neither 10 μM of cB nor 5 μM of cA as single agents could induce apoptosis
same,T/C,"[2]; cA 10 mg/kg BID weekly (day 7, 14, 21, 28)",0.88
same,animals with disease progression,[2],100%
same,body weight loss of weekly dosing compared with Q2D dosing,"[2]; mouse, in vivo",less body weight loss
same,T/C,"[4]; cA 10 mg/kg BID weekly (day 6, 13, 20)",0.49
same,animals with disease progression (DP),[4]; cA 10 mg/kg BID weekly monotherapy,90%
same,animals with disease progression (DP),[4]; cA 14 mg/kg Q2D monotherapy,100%
same,T/C,"[4]; cA 14 mg/kg Q2D, day 6 to 22",0.39
same,IC90,[5],> 5 µM
"COc1cc(F)c(F)c(Nc2ccc(I)cc2F)c1NS(=O)(=O)C1(C[C@H](O)CO)CC1 [cB, (S)—N-(3,4-difluoro-2-(2-fluoro-4-iodophenylamino)-6-methoxyphenyl)-1-(2,3-dihydroxypropyl)cyclopropane-1-sulfonamide]","induction of apoptosis (caspase 3/7), single agent",[3]; 10 μM,Neither 10 μM of cB nor 5 μM of cA as single agents could induce apoptosis
same,T/C,"[2]; cB 12.5 mg/kg daily, day 7 to 35",0.46
same,T/C,"[2]; cB 25 mg/kg daily, day 7 to 35",0.31
same,animals with disease progression,[2],100%
same,T/C,"[4]; cB 12.5 mg/kg daily, day 6 to 23",0.35
same,animals with disease progression (DP),[4]; cB 25 mg/kg monotherapy,70%
same,IC90,[5],> 5 µM
"C#Cc1cccc(Nc2ncnc3cc(OCCOC)c(OCCOC)cc23)c1 [erlotinib, reference compound]",sensitivity of the model,[2],resistant
"COc1cc([C@@H]2c3cc4c(cc3[C@@H](O[C@@H]3O[C@@H]5CO[C@@H](C)O[C@H]5[C@H](O)[C@H]3O)[C@H]3COC(=O)[C@H]23)OCO4)cc(OC)c1O [etoposid, reference compound]",sensitivity of the model,[2],resistant
